# Source: patent publication US10155985B2, “Evaluation of eosinophilic esophagitis” (CHILDREN'S HOSPITAL MEDICAL CENTER, priority 2004, dated 2018)
# B1: SEQ_ID_#58 (nucleic acid, listed as Homo sapiens)
# DNA: ATGAAGGCCAACTACAGCGCAGAGGAGCGCTTTCTCCTGCTGGGTTTCTCCGACTGGCCTTCCCTGCAGCCGGTCCTCTTCGCCCTTGTCCTCCTGTGCTACCTCCTGACCTTGACGGGCAACTCGGCGCTGGTGCTGCTGGCGGTGCGCGACCCGCGCCTGCACACGCCCATGTACTACTTCCTCTGCCACCTGGCCTTGGTAGACGCGGGCTTCACTACTAGCGTGGTGCCGCCGCTGCTGGCCAACCTGCGCGGACCAGCGCTCTGGCTGCCGCGCAGCCACTGCACGGCCCAGCTGTGCGCATCGCTGGCTCTGGGTTCCGCCGAATGCGTCCTCCTGGCGGTGATGGCTCTGGACCGCGCGGCCGCAGTGTGCCGCCCGCTGCGCTATGCGGGGCTCGTCTCCCCGCGCCTATGTCGCACGCTGGCCAGCGCCTCCTGGCTAAGTGGCCTCACCAACTCGGTTGCGCAAACCGCGCTCCTGGCTGAGCGGCCGCTGTGCGCGCCCCGCCTGCTGGACCACTTCATCTGTGAGCTGCCGGCGTTGCTCAAGCTGGCCTGCGGAGGCGACGGAGACACTACCGAGAACCAGATGTTCGCCGCCCGCGTGGTCATCCTGCTGCTGCCGTTTGCCGTCATCCTGGCCTCCTACGGTGCCGTGGCCCGAGCTGTCTGTTGCATGCGGTTCAGCGGAGGCCGGAGGAGGGCGGTGGGCACGTGTGGGTCCCACCTGACAGCCGTCTGCCTGTTCTACGGCTCGGCCATCTACACCTACCTGCAGCCCGCGCAGCGCTACAACCAGGCACGGGGCAAGTTCGTATCGCTCTTCTACACCGTGGTCACACCTGCTCTCAACCCGCTCATCTACACCCTCAGGAATAAGAAAGTGAAGGGGGCAGCGAGGAGGCTGCTGCGGAGTCTGGGGAGAGGCCAGGCTGGGCAGTGA
# B2: SEQ_ID_#65 (nucleic acid, listed as Homo sapiens)
# DNA: ATGAAGGCCAACTACAGCGCAGAGGAGCGCTTTCTCCTGCTGGGTTTCTCCGACTGGCCTTCCCTGCAGCCGGTCCTCTTCGCCCTTGTCCTCCTGTGCTACCTCCTGACCTTGACGGGCAACTCGGCGCTGGTGCTGCTGGCGGTGCGCGACCCGCGCCTGCACACGCCCATGTACTACTTCCTCTGCCACCTGGCCTTGGTAGACGCGGGCTTCACTACTAGCGTGGTGCCGCCGCTGCTGGCCAACCTGCGCGGACCAGCGCTCTGGCTGCCGCGCAGCCACTGCACGGCCCAGCTGTGCGCATCGCTGGCTCTGGGTTCCGCCGAATGCGTCCTCCTGGCGGTGATGGCTCTGGACCGCGCGGCCGCAGTGTGCCGCCCGCTGCGCTATGCGGGGCTCGTCTCCCCGCGCCTATGTCGCACGCTGGCCAGCGCCTCCTGGCTAAGTGGCCTCACCAACTCGGTTGCGCAAACCGCGCTCCTGGCTGAGCGGCCGCTGTGCGCGCCCCGCCTGCTGGACCACTTCATCTGTGAGCTGCCGGCGTTGCTCAAGCTGGCCTGCGGAGGCGACGGAGACACTACCGAGAACCAGATGTTCGCCGCCCGCGTGGTCATCCTGCTGCTGCCGTTTGCCGTCATCCTGGCCTCCTACGGTGCCGTGGCCCGAGCTGTCTGTTGCATGCGGTTCAGCGGAGGCCGGAGGAGGGCGGTGGGCACGTGTGGGTCCCACCTGACAGCCGTCTGCCTGTTCTACGGCTCGGCCATCTACACCTACCTGCAGCCCGCGCAGCGCTACAACCAGGCACGGGGCAAGTTCGTATCGCTCTTCTACACCGTGGTCACACCTGCTCTCAACCCGCTCATCTACACCCTCAGGAATAAGAAAGTGAAGGGGGCAGCGAGGAGGCTGCTGCGGAGTCTGGGGAGAGGCCAGGCTGGGCAGTGA
# B3: SEQ_ID_#783 (nucleic acid, listed as Homo sapiens)
# DNA: TATCACGCACAAATTGCAATTACTTCACACTCACGATAACCCATTAATCTGTGAAGGATTAATCTGTTCATGAAGGCAGGGCCCTCATGATGGAATCACATCTTAAAGCCCCTACGTCTGAGTACTGTTACATTGGGGATTTAGTTTTAATATGATTTTCAGAGCAGAAAAACATTCAAACCATAGCAATATGTATTGAATATCTAGATCATTTCCAAATAAGATATTAATATGATACTGAAACATTTATTGCTGAACATAAATTTAGAACTTACTTTGCCTACCTATTACAGAAGAACAAAAGATATTTGGGCCTATTAAACCTTTCCTCTGCCATTTCCTGTCCTGTGTCATAGGACTAGGAATCGTGTTTCTAGAAGGTATGAAATCGTGTGCTTGCAAACTTGGAAGAAAACAGTTCATGACTGCATACCTTCTAGTTCTCTAGTGTTCACTGGAAATTAAAGACACTAAAAGTTAACAATTCTTATTAATTAATCATATTAATGTAATTGGAATTTCTAGAAATATTAGGGGAAGCAACTTTATACGCAAAGCATAACAGAAAAATAAGGTGTATTTTTTCTTTGAAACCTATGAAATATACTGGCCAGGCACGGTGGCTCATGCTTGTAATCCCAGCACTTTGGGAAGCTGAAGCGGTGGATCACCTGAGCTCAGGAGTCCGAGACCAGCTGGCCACATGTTGAACCATGTCTCTACTAAAATACAAAATTAGCAGTCATGTGCGGTGCTGTACCCCAGTACTCGGAGCTGGGGGGAATCGTGACCGGGTGGGTGCTGACCAAACCTGGCCCAGCGGGAAAGAGACTTTAAAACAATGGACCAAACTGCACAAGCTCTGCCACACTTGTCGAACCCGTGGACGCACAAGAAAAGGGCATCTGGACCTGGAATAACGAAACGACACATCT
# B4: SEQ_ID_#787 (nucleic acid, listed as Homo sapiens)
# DNA: TTTGGTACAGAATGAAACCGTTCTCTTTGAAGAACTGCATGTTTCCCCCAGTCATTTTTGTCCTGGGGGAGTCAAGTGTTTTTACGGACCCTTGAAGCTTGAGGACACTCTGGCATCACCCATTGTTGGGGTGACTTTCTGGTGATTATCAGTGAGCAAACTTCAAGGCCAGCTCCGATTAGGAAAATCTGCCAAGTGTGAGTTTCCTTGGAGCTAGGACTGGGCAGAGACCCCTGGTCCTTGGTCCGTAGGGAAGCTGGGGGATTTGGGGGGTAAGTAATGAGATCATGTCTGCAGAGGCCCCCAGCCTCTTGGAAGAAGATTCCGCTGTAATTTCTTGGAAAAAGCCAACTCCTTCCAGCCCTTTCTGCTCACACCATCTCAGTTTTCCTGGCTGG
# Test system: EE transcriptome
# Assay: Genome-wide microarray transcript profiling of esophageal biopsies, EE patients vs normal individuals (EE transcriptome)
# Details: transcript level in esophageal biopsies of EE patients (n=76) compared to normal individuals (n=13); Affymetrix Human Genome U133 plus 2; p<0.01
# Protocol: Esophageal tissue obtained from patients previously diagnosed with EE was analyzed. Diagnosis was based on analysis of excised tissue from endoscopic biopsy. Tissues from patients with EE, as well as patients not having EE (controls) were subjected to genome-wide microarray transcript profiling (Affymetrix GeneChip). All work was performed at the Core facility at Children's Hospital Medical Center (Cincinnati Ohio).
# Briefly, RNA quality was first assessed using the Agilent bioanaiyzer (Agilent Technologies, Palo Alto Calif.). Only mRNA having a ratio of 28S/18S between 1.3 and 2 were subsequently used. RNA was converted to cDNA with Superscript choice for cDNA synthesis (Invitrogen, Carlsbad Calif.) and subsequently converted to biotinylated cRNA with Enzo High Yield RNA Transcript labeling kit (Enzo Diagnostics, Farmingdale N.Y.). After hybridization to the GeneChip (Affymetrix, Santa Clara Calif.), the chips were automatically washed and stained with streptavidin-phycoerythrin using a fluidics system. The chips were scanned with a Hewlett Packard GeneArray Scanner. Over 30,000 unique genes were screened.
# Levels of gene transcripts were determined from data image files, using algorithms in the Microarray Analysis Suite software (Affymetrix). Levels from chip to chip were compared by global scaling. Each gene was typically represented by a probe set of 16 to 20 probe pairs. Each probe pair consisted of a perfect match oligonucleotide and a mismatch oligonucleotide that contained a one base mismatch at a central position. Two measures of gene expression were used, absolute call and average difference. Absolute call is a qualitative measure in which each gene is assigned a call of present, marginal or absent, based on the hybridization of the RNA to the probe set. Average difference is a quantitative measure of the level of gene expression, calculated by taking the difference between […] of every probe pair and averaging the differences over the entire probe set. Data were normalized and an EE transcriptome gene list was created with results having p<0.01 (Welch t-test with or without false rate discovery) and ≥1.5-fold change.
# For evaluation of EE using clinical and/or physical assessment, biopsy tissues (obtained from the distal esophagus during routine endoscopy) were submerged in formalin for routine pathological analysis with hematoxylin and eosin staining. Diagnosis was established based on the maximum eosinophil count per high power field (hpf) and basal layer expansion according to method known in the art (e.g., established criteria in Rothenberg et al., Pathogenesis and clinical features of eosinophilic esophagitis. J Allergy Clin Immunol 108 (2001) 891; Attwood et al., Esophageal eosinophilia with dysphagia. A distinct clinicopathologic syndrome. Dig Dis Sci 38 (1993)109; Fox et al., Eosinophilic esophagitis: its not just kid's stuff. Gastrointest Endosc 56 (2002) 26, each of which is expressly incorporated by reference herein in its entirety. Normal individuals (NL), n=13, served as a control and were defined as having 0 eosinophils/hpf and no basal layer expansion. Individuals with EE (n=76) were defined as having >24 eosinophils/hpf and extensive basal layer hyperplasia (expansion to about >⅓ of epithelium).
# The data were analyzed by cluster analysis and ordered (standard correlation (A) and distance (B)) using Genespring software. […] Each column represented a separate individual and each line a gene. RNA from each patient was subjected to chip analysis using Affymetrix Human Genome U133 GeneChip plus 2.
row,Molecule,Fold Change
1,ACSL5,2.745
2,ADAM28,2.613
3,SAMSN1,7.119
4,SCIN,3.17
5,SCUBE1,2.689
6,SCUBE2,5.502
7,SDPR,2.293
8,SE57-1,4.055
9,SEC6L1,8.878
10,SECTM1,3.282
11,SEPX1,2.611
12,SERPINB4,4.328
13,SFRP1,4.098
14,SGK,3.139
15,SH2D1B,3.098
16,SH3RF2,3.122
17,SIDT1,4.822
18,SIGLEC6,3.199
19,SLC15A1,2.792
20,B1,4.822
21,B2,4.547

# Same assay, conditions: transcript level in esophageal biopsies of EE patients compared to normal individuals (NL); Affymetrix Human Genome U133 plus 2; p<0.01; >1 up-regulated, <1 down-regulated
row,Molecule,Fold Change
1,13CDNA73,0.632
2,AADAT,0.608
3,ABCC1,0.622
4,ABHD6,0.609
5,ACADL,0.588
6,ACOX2,0.592
7,ADAMTS17,0.631
8,ADAR,1.509
9,SAMD9,0.634
10,SC5DL,0.6
11,SCEL,0.631
12,SCYL2,1.507
13,SEC24C,0.647
14,SF3B3,0.655
15,SFRS5,0.666
16,SGPL1,0.63
17,SH3BP5,0.622
18,B3,1.53
19,B4,1.528
